Experimental data taken from article PMC10847306, “The antibacterial activity and mechanism of a novel peptide MR-22 against multidrug-resistant Escherichia coli” (Frontiers in Cellular and Infection Microbiology, 2024).

Legend:
[1] = test system: E. coli ATCC 25922 and clinically drug resistant isolated strains; experiment: microbe, parasite or virus in culture; format: cell-based, Escherichia coli; conditions: Escherichia coli; E. coli ATCC 25922 and 22 clinical isolates; microdilution, MHB; read-out: MIC over all strains tested
Description: (§1) The MIC were determined by a micro dilution method in Mueller-Hinton broth (MHB) ([Cuenca-Estrella et al., 2010]). The final concentration of bacterial suspension in MHB were 1.0×10^6 CFU/mL. The final concentration of MR-22 ranged 1 ~ 256 μg/mL in 96 wells plate broth at 37°C for 16~18 h. Imipenem was employed as positive control, bacterial grown without treatment as negative control and MHB as blank control. MIC determination was performed by reading the OD600 nm. Take 100 μL samples in holes that have never seen bacterial growth and place them on the LB agar board. The concentration of MR-22 with no bacterial growth was defined as the MBC.

[2] = test system: E. coli clinical strain E22; experiment: microbe, parasite or virus in culture
Description: (§2) The clinical strains used in this study were obtained from a tertiary healthcare facility located in Guiyang, a city situated within the Guizhou Province of China. The E. coli ATCC 25922 was obtained from the Key and Characteristic Laboratory of Modern Pathogen Biology at Guizhou Medical University in Guiyang, China. All strains were stored at –80°C in LB medium and routinely cultured at LB medium at 37°C.
as §1

[3] = test system: E. coli clinical strain E14; experiment: microbe, parasite or virus in culture
Description: as §2, §1

[4] = test system: E. coli clinical strain E12; experiment: microbe, parasite or virus in culture
Description: as §2, §1

[5] = test system: E. coli clinical strain E01; experiment: microbe, parasite or virus in culture
Description: as §2, §1

[6] = test system: E. coli clinical strain E21; experiment: microbe, parasite or virus in culture
Description: as §2, §1

[7] = test system: E. coli clinical strain E04; experiment: microbe, parasite or virus in culture
Description: as §2, §1

[8] = test system: E. coli clinical strain E05; experiment: microbe, parasite or virus in culture
Description: as §2, §1

[9] = test system: E. coli clinical strain E02; experiment: microbe, parasite or virus in culture
Description: as §2, §1

[10] = test system: E. coli clinical strain E17; experiment: microbe, parasite or virus in culture
Description: as §2, §1

[11] = test system: E. coli clinical strain E18; experiment: microbe, parasite or virus in culture
Description: as §2, §1

[12] = test system: E. coli clinical strain E20; experiment: microbe, parasite or virus in culture
Description: as §2, §1

[13] = test system: E. coli clinical strain E03; experiment: microbe, parasite or virus in culture
Description: as §2, §1

[14] = test system: E. coli clinical strain E16; experiment: microbe, parasite or virus in culture
Description: as §2, §1

[15] = test system: E. coli clinical strain E13; experiment: microbe, parasite or virus in culture
Description: as §2, §1

[16] = test system: E. coli clinical strain E06; experiment: microbe, parasite or virus in culture
Description: as §2, §1

[17] = test system: E. coli clinical strain E07; experiment: microbe, parasite or virus in culture
Description: as §2, §1

[18] = test system: E. coli clinical strain E15; experiment: microbe, parasite or virus in culture
Description: as §2, §1

[19] = test system: E. coli clinical strain E19; experiment: microbe, parasite or virus in culture
Description: as §2, §1

[20] = test system: E. coli clinical strain E09; experiment: microbe, parasite or virus in culture
Description: as §2, §1

[21] = test system: E. coli clinical strain E11; experiment: microbe, parasite or virus in culture
Description: as §2, §1

[22] = test system: E. coli clinical strain E10; experiment: microbe, parasite or virus in culture
Description: as §2, §1

[23] = test system: E. coli clinical strain E08; experiment: microbe, parasite or virus in culture
Description: as §2, §1

E. coli E19 = experiment: Mice peritonitis model; format: in vivo; conditions: C57BL/6J mice, E19 peritonitis; 10 mg/kg 1 h after infection; after 36 h; ten mice per group; control group 8.73 ± 0.38
Description: This study utilized female C57BL/6J mice aged 6-8 weeks, weight range of 18-20 g, which were obtained from SPF Biotechnology Co., Ltd (Beijing, China). The animals were housed under maintained on a standard 12 h light/12 h dark cycle. All animal experiments were conducted in accordance with the Ethical Principles in Animal Research adopted by Guizhou Medical University and were approved by the Institutional Animal Care and Use Committee.
To evaluate the in vivo efficacy of MR-22, we used a mice peritonitis model. A total of 60 mice were divided into three groups: treatment group (10 mg/kg MR-22, intraperitoneal injection), positive control group (10 mg/kg imipenem, intraperitoneal injection), and normal control group (PBS, intraperitoneal injection). Peritonitis was induced by intraperitoneal injection of 1.0 × 10^8 CFU bacterial inoculum in 0.2 mL of E. coli E19. Survival rates were recorded every 12 h for 7 days.
To study the protective effects of MR-22, 10 mice in each group were sacrificed, and peritoneal lavage fluid, blood, liver, and kidney were collected 36 h after administration. The number of colonies in peritoneal lavage fluid and blood were determined by culturing on LB agar, while the tissues were fixed in 4% paraformaldehyde and subjected to hematoxylin and eosin staining to study the morphology.

E. coli ATCC 25922 = experiment: microbe, parasite or virus in culture
Description: as §1

MIC [1]: ≤ 1 µg/mL | MIC ([2]; Escherichia coli, 18 h): ≤ 1 µg/mL | susceptibility category (S/I/R) given with the MIC ([2]; strain E22): S | MIC ([3]; Escherichia coli, 18 h): ≤ 1 µg/mL | susceptibility category (S/I/R) given with the MIC ([3]; strain E14): S | MIC ([4]; Escherichia coli, 18 h): ≤ 1 µg/mL | susceptibility category (S/I/R) given with the MIC ([4]; strain E12): S | MIC ([5]; Escherichia coli, 18 h): ≤ 1 µg/mL | susceptibility category (S/I/R) given with the MIC ([5]; strain E01): S | MIC ([6]; Escherichia coli, 18 h): ≤ 1 µg/mL | susceptibility category (S/I/R) given with the MIC ([6]; strain E21): S | MIC ([7]; Escherichia coli, 18 h): ≤ 1 µg/mL | susceptibility category (S/I/R) given with the MIC ([7]; strain E04): S | MIC ([8]; Escherichia coli, 18 h): ≤ 1 µg/mL | susceptibility category (S/I/R) given with the MIC ([8]; strain E05): S | MIC ([9]; Escherichia coli, 18 h): ≤ 1 µg/mL | susceptibility category (S/I/R) given with the MIC ([9]; strain E02): S | MIC ([10]; Escherichia coli, 18 h): ≤ 1 µg/mL | susceptibility category (S/I/R) given with the MIC ([10]; strain E17): S | MIC ([11]; Escherichia coli, 18 h): ≤ 1 µg/mL | susceptibility category (S/I/R) given with the MIC ([11]; strain E18): S | MIC ([12]; Escherichia coli, 18 h): ≤ 1 µg/mL | susceptibility category (S/I/R) given with the MIC ([12]; strain E20): S | MIC ([13]; Escherichia coli, 18 h): ≤ 1 µg/mL | susceptibility category (S/I/R) given with the MIC ([13]; strain E03): S | MIC ([14]; Escherichia coli, 18 h): ≤ 1 µg/mL | susceptibility category (S/I/R) given with the MIC ([14]; strain E16): S | MIC ([15]; Escherichia coli, 18 h): ≤ 1 µg/mL | susceptibility category (S/I/R) given with the MIC ([15]; strain E13): S | MIC ([16]; Escherichia coli, 18 h): ≤ 1 µg/mL | susceptibility category (S/I/R) given with the MIC ([16]; strain E06): S | MIC ([17]; Escherichia coli, 18 h): ≤ 1 µg/mL | susceptibility category (S/I/R) given with the MIC ([17]; strain E07): S | MIC ([18]; Escherichia coli, 18 h): ≤ 1 µg/mL | susceptibility category (S/I/R) given with the MIC ([18]; strain E15): S | MIC ([19]; Escherichia coli, 18 h): ≤ 1 µg/mL | susceptibility category (S/I/R) given with the MIC ([19]; strain E19): S | MIC ([20]; Escherichia coli, 18 h): ≤ 1 µg/mL | susceptibility category (S/I/R) given with the MIC ([20]; strain E09): S | MIC ([21]; Escherichia coli, 18 h): ≤ 1 µg/mL | susceptibility category (S/I/R) given with the MIC ([21]; strain E11): S | MIC ([22]; Escherichia coli, 18 h): ≤ 1 µg/mL | susceptibility category (S/I/R) given with the MIC ([22]; strain E10): S | MIC ([23]; Escherichia coli, 18 h): ≤ 1 µg/mL | susceptibility category (S/I/R) given with the MIC ([23]; strain E08): S | susceptibility category (S/I/R) given with the MIC (E. coli ATCC 25922; E. coli ATCC 25922): S | MIC (E. coli ATCC 25922; Escherichia coli, ATCC25922, 18 h): ≤ 1 µg/mL
SMILES: C[C@@H](O)[C@H]1C(=O)N2C(C(=O)O)=C(SCCN=CN)C[C@H]12 [IPM, imipenem]
bacterial content in the peritoneal lavage fluid (E. coli E19): 4.20 ± 0.25 Log10CFU/mL
